For 6 compounds, IC50 and CC50 results are on record in ChEMBL document CHEMBL5120897, “Anti-HIV Tigliane-Type Diterpenoids from the Aerial Parts of Wikstroemia lichiangensis” (J Nat Prod, 2022).

Experiment [1] relates to Human immunodeficiency virus 1. Description: Anti-HIV activity against HIV-1 NL4-3 Nanoluc-sec virus infected in human MT4 cells assessed as luciferase activity and measured 3 days post-infection by Nano-Glo luciferase assay. It is filed as functional, organism-based. The following applies: Human immunodeficiency virus 1, NL4-3, MT4, 72 h.
The subject of the next experiment is MT4. Description: Cytotoxicity against human MT4 cells assessed as reduction in cell viability by CellTiter-Glo luminescent cell viability assay. It is filed as functional. For orientation: ATP-based viability assays read luminescence as a measure of living cells.

By IC50 is commonly meant the concentration that gives 50% inhibition. Usually CC50 stands for the concentration at which the toxic effect on the cells reaches its halfway point. As for `C=C(C)[C@]12C[C@@H](COC(=O)c3ccccc3)[C@@]34OC5(O[C@@H]1[C@@H]3[C@@H]1O[C@]1(CO)[C@@H](O)[C@@]1(O)[C@H]4[C@H]([C@H](C)[C@@H]1OC(=O)c1ccccc1)[C@H](C)CCCCCC[C@H]5O)O2`, the IC50 in experiment [1] was determined as 0.15 nM. Moreover, in the experiment with MT4, the CC50 was > 7000 nM.

With `CCCCCC/C=C/CC(=O)O[C@@]12[C@H](OC(=O)c3ccccc3)[C@@H](C)[C@@]3(O)[C@@H](C=C(CO)C[C@]4(O)C(=O)C(C)=C[C@@H]34)[C@@H]1C2(C)C`, the IC50 in experiment [1] was 1.1 nM. Moreover, the CC50 in the experiment with MT4 is > 7000 nM.

For the compound `CCCCCC/C=C/CC(=O)O[C@@]12[C@H](OC(=O)c3ccccc3)[C@@H](C)[C@]3(O)[C@@H]4C=C(C)C(=O)[C@@]4(O)[C@H](O)C(CO)=C[C@H]3[C@@H]1C2(C)C`, in experiment [1], the IC50 amounted to 1.5 nM. Also, in the experiment on MT4, the CC50 was > 7000 nM.

Turning to `CCCCCCCCCC(=O)O[C@@]12[C@H](OC(=O)c3ccccc3)[C@@H](C)[C@]3(O)[C@@H]4C=C(C)C(=O)[C@@]4(O)[C@H](O)C(CO)=C[C@H]3[C@@H]1C2(C)C`, the IC50 in experiment [1] was 1.5 nM. Also, the CC50 in the experiment on MT4 was > 7000 nM.

On to `CCCC/C=C/C=C/CC(=O)O[C@@]12[C@H](OC(=O)c3ccccc3)[C@@H](C)[C@]3(O)[C@@H]4C=C(C)C(=O)[C@@]4(O)[C@H](O)C(CO)=C[C@H]3[C@@H]1C2(C)C`, for which the IC50 in experiment [1] came out at 65.4 nM. For the same compound, the CC50 in the experiment with MT4 was > 7000 nM.

With `CCCC/C=C/C=C/CC(=O)O[C@@]12[C@H](OC(=O)c3ccccc3)[C@@H](C)[C@@]3(O)[C@@H](C=C(CO)C[C@]4(O)C(=O)C(C)=C[C@@H]34)[C@@H]1C2(C)C`, in experiment [1], the IC50 was 3 nM. The CC50 in the experiment on MT4 is > 7000 nM.
